According to ChEMBL document CHEMBL1201862, “PubChem BioAssay data set” (2004):
Calls of active or inactive are those of the source.

Tests used:
[1] = THP-1 cell cytotoxicity, dose response, cytotoxicity control for non-replicating M. tuberculosis project (AID 489025); type: functional
[2] = biological target: T1, Histone-lysine N-methyltransferase NSD2 (Homo sapiens, UniProt O96028); type: biochemical
T1 sequence (O96028 whole entry): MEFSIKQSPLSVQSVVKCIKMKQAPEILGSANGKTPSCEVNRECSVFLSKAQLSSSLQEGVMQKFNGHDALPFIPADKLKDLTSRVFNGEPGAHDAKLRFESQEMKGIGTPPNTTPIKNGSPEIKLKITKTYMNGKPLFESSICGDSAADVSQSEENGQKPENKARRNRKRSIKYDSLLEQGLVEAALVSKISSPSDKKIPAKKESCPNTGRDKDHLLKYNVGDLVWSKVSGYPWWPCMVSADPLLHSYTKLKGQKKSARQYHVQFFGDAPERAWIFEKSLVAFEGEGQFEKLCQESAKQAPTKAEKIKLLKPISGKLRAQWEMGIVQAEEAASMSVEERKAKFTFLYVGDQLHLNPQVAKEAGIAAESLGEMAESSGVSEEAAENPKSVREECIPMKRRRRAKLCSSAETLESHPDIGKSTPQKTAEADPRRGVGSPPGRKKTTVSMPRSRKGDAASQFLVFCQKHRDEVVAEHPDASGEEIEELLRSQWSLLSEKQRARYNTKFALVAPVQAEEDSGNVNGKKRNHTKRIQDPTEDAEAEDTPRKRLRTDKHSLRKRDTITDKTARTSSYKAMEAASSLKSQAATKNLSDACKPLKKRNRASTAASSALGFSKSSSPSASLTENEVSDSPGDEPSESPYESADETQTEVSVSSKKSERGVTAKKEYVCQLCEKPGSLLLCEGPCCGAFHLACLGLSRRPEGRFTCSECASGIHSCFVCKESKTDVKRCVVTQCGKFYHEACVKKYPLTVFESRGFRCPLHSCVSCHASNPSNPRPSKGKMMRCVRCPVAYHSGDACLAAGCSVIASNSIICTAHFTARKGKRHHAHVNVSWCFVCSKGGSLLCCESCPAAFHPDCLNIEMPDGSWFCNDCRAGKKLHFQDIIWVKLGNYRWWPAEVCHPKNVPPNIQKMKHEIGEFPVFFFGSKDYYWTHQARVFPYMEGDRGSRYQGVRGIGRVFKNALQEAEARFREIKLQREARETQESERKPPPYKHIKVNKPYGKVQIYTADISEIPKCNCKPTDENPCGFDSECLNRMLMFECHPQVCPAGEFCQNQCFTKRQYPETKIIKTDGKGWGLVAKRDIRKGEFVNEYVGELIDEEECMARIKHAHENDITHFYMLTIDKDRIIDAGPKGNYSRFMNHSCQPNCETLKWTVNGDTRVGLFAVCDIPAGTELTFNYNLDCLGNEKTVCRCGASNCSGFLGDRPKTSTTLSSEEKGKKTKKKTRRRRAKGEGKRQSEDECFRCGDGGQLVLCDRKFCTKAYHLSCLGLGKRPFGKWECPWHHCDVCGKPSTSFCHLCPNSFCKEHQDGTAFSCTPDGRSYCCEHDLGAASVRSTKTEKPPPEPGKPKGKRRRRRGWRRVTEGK

[3] = biological target: T2, Short transient receptor potential channel 4 (Mus musculus, UniProt Q9QUQ5); experiment: mouse TRPC4 channel inhibitors, dose response, cell-based, HEK293 TRPC4/mu-opioid, Fluo-4 calcium (AID 434942); type: functional;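 further: potency of inhibitors blocking the TRPC4 calcium response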
T2 sequence (Q9QUQ5 whole entry): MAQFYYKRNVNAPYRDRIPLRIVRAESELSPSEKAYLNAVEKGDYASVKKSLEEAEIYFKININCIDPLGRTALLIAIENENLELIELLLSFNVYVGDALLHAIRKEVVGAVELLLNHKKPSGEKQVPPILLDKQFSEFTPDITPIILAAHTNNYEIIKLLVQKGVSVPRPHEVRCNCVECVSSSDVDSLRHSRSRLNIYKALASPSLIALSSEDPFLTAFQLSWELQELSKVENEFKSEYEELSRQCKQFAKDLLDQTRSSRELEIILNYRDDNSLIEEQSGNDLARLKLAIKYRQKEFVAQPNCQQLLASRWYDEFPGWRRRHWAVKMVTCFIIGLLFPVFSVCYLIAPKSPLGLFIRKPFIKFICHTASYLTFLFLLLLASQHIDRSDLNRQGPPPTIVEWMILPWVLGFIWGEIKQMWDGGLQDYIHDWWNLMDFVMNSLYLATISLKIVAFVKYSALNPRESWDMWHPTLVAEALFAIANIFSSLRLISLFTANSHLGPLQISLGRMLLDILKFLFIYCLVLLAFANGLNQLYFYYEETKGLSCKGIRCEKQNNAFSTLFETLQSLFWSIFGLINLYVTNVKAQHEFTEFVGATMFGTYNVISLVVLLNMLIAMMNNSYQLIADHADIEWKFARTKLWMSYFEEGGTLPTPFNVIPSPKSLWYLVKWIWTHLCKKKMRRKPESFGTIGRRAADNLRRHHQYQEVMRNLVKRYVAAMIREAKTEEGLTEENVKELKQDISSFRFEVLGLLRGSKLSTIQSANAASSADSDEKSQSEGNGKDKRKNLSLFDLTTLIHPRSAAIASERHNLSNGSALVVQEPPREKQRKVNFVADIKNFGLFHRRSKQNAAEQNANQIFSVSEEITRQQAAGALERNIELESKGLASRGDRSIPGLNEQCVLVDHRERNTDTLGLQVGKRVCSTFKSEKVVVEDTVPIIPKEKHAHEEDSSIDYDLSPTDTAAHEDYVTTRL

Nonstructural protein 1 = Nonstructural protein 1 (Influenza A virus, UniProt Q194T2); type: functional, Influenza A virus (A/California/07/2009(H1N1))
[4] = NIH:OVCAR-3 ovarian cancer cell cytotoxicity, dose response, PAX8 inhibitor project, plate reader, dry powder samples (AID 743044); type: functional, cell-based
Paired box protein Pax-8 = Paired box protein Pax-8 (Homo sapiens, UniProt Q06710); experiment: inhibitors of PAX8-driven TPO luciferase reporter, dose response, RMG-I cells, cherry-pick (AID 687027); type: functional, cell-based;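 further: luciferase reporter driven by Pax8 target thyroperoxidase promoter measured by SteadyGlo luminescence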
[5] = cytotoxicity in OVCAR8 ovarian cancer cells, dose response, PAX8 project, cell-based, plate reader, dry powder samples (AID 743197); type: functional; conditions: OVCAR-8
cells = type: functional
[6] = Vero E6 cell cytotoxicity, dose response, cytotoxicity control for non-replicating M. tuberculosis project, secondary assay (AID 492998); type: functional, VeroE6; conditions: Vero C1008
[7] = IGROV1 ovarian cancer cell cytotoxicity, dose response, PAX8 inhibitor project, plate reader, dry powder samples (AID 743043); type: functional, cell-based; conditions: IGROV-1
[8] = biological target: T3, Replicative DNA helicase DnaB (Mycobacterium tuberculosis, UniProt P9WMR3); experiment: DnaB intein splicing inhibitors, dose response, biochemical, cell-free fluorescence (AID 449749); type: functional
T3 sequence (P9WMR3 whole entry): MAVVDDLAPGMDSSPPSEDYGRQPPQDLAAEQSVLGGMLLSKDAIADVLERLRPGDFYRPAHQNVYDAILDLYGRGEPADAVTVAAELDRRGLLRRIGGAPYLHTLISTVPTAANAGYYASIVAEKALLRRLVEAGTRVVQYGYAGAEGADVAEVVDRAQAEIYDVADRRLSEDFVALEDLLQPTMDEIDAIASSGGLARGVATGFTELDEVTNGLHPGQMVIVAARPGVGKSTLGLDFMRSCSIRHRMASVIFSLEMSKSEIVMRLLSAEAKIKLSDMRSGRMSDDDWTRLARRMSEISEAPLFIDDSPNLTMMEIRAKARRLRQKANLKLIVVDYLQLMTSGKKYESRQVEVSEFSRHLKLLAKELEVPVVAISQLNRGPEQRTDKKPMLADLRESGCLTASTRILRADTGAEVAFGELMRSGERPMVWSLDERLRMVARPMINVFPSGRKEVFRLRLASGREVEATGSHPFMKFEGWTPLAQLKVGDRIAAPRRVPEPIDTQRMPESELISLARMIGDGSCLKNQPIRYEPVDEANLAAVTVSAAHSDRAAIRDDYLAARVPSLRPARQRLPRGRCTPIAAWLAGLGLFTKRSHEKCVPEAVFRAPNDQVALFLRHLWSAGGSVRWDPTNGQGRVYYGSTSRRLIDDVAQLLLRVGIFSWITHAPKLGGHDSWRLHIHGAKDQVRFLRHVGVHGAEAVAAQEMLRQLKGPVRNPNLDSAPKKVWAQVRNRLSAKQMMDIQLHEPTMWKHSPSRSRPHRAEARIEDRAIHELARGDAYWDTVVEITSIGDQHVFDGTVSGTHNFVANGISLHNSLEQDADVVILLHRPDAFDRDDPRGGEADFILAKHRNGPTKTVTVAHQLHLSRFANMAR

Protein RecA = biological target: T4, Protein RecA (Mycobacterium tuberculosis, UniProt P9WHJ3); experiment: Fluorescence Cell-Free Homogeneous Dose Retest to Identify Inhibitors of RecA-Intein Splicing Activity. [Related pubchem assays (depositor defined):AID2097, AID2223, AID489010, AID492950]; type: functional
T4 sequence (P9WHJ3 whole entry): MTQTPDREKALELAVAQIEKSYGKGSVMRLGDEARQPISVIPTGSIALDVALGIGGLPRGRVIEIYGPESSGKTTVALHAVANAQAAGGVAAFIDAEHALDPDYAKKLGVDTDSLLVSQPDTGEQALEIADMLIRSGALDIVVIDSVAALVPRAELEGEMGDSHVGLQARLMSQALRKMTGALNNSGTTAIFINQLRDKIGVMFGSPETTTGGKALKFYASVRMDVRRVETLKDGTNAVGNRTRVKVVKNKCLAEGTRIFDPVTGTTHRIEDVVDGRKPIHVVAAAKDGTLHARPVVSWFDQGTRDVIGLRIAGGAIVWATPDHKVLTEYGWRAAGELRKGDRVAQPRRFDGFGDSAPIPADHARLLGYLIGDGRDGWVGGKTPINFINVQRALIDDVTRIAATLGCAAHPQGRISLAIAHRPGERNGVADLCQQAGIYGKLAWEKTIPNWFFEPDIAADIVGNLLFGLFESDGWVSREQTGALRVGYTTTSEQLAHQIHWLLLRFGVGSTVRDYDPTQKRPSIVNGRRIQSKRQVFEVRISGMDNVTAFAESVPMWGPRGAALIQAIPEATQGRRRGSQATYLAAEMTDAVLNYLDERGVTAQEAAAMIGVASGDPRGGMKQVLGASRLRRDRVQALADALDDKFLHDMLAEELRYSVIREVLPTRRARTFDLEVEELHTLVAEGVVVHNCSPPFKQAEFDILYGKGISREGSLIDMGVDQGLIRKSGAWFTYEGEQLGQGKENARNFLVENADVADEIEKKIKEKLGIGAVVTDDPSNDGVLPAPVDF

Streptococcus = experiment: Group A Streptococcus viability loss, dose response, counter-screen for streptokinase expression inhibitor project, luminescence, BacTiterGlo (AID 1915); type: functional, organism-based;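 further: potency for reduction of bacterial viability or growth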
[9] = tested on: Streptococcus sp. 'group A'; experiment: growth inhibition of control SK(-) GAS strain, dose response, counter-screen for streptokinase expression inhibitor project, luminescence, kanamycin, BacTiterGlo, confirmation (AID 1900); type: functional, organism-based
Streptokinase A = biological target: T5, Streptokinase A (Streptococcus pyogenes serotype M1, UniProt P10520); experiment: S. pyogenes streptokinase expression inhibitors, potency, dose response, plasminogen activation absorbance, OD405 (AID 1914); type: functional, Streptococcus pyogenes M1 GAS;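 further: secreted streptokinase activity via plasminogen activation per viability signal from cell pellet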
T5 sequence (P10520 whole entry): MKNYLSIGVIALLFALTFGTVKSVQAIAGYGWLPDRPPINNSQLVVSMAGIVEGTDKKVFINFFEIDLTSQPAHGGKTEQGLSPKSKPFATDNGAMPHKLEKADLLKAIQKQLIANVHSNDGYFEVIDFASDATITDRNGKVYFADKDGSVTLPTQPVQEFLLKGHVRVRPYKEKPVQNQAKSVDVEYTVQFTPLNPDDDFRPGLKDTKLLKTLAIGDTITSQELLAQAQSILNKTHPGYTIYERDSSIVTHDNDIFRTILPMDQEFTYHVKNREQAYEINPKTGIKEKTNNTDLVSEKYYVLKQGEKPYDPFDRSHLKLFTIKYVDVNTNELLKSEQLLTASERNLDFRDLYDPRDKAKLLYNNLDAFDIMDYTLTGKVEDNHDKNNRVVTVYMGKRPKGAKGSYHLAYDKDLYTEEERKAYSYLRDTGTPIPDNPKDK

Sequence of Paired box protein Pax-8 (Q06710 whole entry): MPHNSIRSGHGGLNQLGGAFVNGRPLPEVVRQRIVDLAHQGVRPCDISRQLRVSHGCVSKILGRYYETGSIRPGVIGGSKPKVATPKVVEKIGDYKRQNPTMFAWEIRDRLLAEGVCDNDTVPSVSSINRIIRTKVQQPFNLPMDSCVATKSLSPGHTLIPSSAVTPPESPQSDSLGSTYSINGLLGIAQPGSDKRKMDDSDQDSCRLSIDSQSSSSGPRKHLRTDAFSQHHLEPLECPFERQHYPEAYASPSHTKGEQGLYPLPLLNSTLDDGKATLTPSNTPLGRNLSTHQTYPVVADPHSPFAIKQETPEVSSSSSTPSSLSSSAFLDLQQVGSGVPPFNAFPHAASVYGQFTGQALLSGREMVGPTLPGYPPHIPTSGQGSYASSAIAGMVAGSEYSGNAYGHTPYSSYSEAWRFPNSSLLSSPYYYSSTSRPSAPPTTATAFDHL
Sequence of Nonstructural protein 1 (Q194T2 whole entry): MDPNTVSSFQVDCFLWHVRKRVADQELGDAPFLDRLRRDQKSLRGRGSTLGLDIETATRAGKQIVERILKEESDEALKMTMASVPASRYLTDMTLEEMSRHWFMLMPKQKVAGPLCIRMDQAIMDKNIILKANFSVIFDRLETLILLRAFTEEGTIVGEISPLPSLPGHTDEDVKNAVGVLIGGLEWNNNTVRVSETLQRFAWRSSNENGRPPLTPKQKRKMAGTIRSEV

Compound: Cc1nn(C)cc1/C=N/NC(=O)c1sc2ccccc2c1Cl
- CC50 [1]: > 40 µM (active)

Compound: C=C(C)c1cccc(C(C)(C)NC(=O)NC2CN3CCC2CC3)c1 (configuration not stated)
- AC50 [2]: 15.6 µM (active)

Compound: COc1cc2c(cc1OC)C(C)N(CCc1ccc(Cl)cc1)CC2 (configuration not stated)
- EC50 [3]: 0.105 µM (active)

Compound: O=C(N/N=C/c1ccccc1O)c1cc[n+]([O-])cc1
- IC50 (Nonstructural protein 1): 4.49 µM (active)

Compound: C[C@@H]1CN([C@@H](C)CO)C(=O)c2cc(NC(=O)c3ccccc3)ccc2O[C@@H](C)CCCCO[C@@H]1CN(C)Cc1ccc(C(F)(F)F)cc1
- AC50 [4]: 30.4 µM (active)
- AC50 (Paired box protein Pax-8): 9.74 µM (active)
- AC50 [5]: > 70 µM (inactive)

Compound: O=C(c1ccccc1)c1nc[nH]c1C(=O)Nc1ccccc1
- IC50 (cells): 12.5 µM (active)
- CC50 [6]: > 20 µM (active)

Compound: C[C@H](CO)N1C[C@H](C)[C@H](CN(C)Cc2ccc(Cl)c(Cl)c2)OCCCC[C@H](C)Oc2ccc(NC(=O)Nc3ccc(C(F)(F)F)cc3)cc2C1=O
- AC50 [7]: 43.1 µM (active)
- AC50 (Paired box protein Pax-8): 5.3 µM (active)
- AC50 [5]: 63 µM (active)

Compound: Cc1cccc(S(=O)(=O)N2CC[C@@H]3[C@H](CO)N(C)c4ccc(C#Cc5ccc(F)cc5)cc4[C@@H]32)c1
- AC50 [7]: 41.8 µM (active)
- AC50 (Paired box protein Pax-8): 8.27 µM (active)
- AC50 [5]: > 60 µM (inactive)

Compound: Cc1[nH]n(-c2ccccc2)c(=O)c1C(C[N+](=O)[O-])c1ccc(Cl)cc1 (configuration not stated)
- AC50 [2]: 9.52 µM (active)
- AC50 [8]: 5.32 µM (active)
- EC50 (Protein RecA): 3.22 µM (active)

Compound: C[C@@H]1CCCCO[C@@H](CN(C)C(=O)Nc2cccc3ccccc23)[C@H](C)CN([C@H](C)CO)C(=O)c2cc(NS(=O)(=O)c3ccc(F)cc3)ccc2O1
- AC50 [7]: 45.5 µM (active)
- AC50 (Paired box protein Pax-8): 5.4 µM (active)
- AC50 [5]: > 70 µM (inactive)

Compound: O=C(/C=C/c1ccco1)Nc1ccccc1C(=O)O
- AC50 [2]: > 20 µM (inactive)

Compound: CC(=O)Oc1ccc(/C=C(\NC(=O)c2ccco2)C(=O)NCc2ccccc2)cc1
- EC50 [3]: 1.68 µM (active)

Compound: Cc1ccc(Cn2c(Cc3ccccc3)nc3ccccc32)cc1
- EC50 (Streptococcus): 61.3 µM (active)
- EC50 [9]: 12.5 µM (active)
- EC50 (Streptokinase A): > 150 µM (not active)
- EC50 [3]: 0.668 µM (active)
